Experiments:
HeLa Cells [1] = assay: GFP plasmid transfection with DOTMA/DOPE plus surface ligand peptide, fluorescent plate reader (Example 1); format: cell-based; conditions: DOTMA/DOPE + peptide linked to R12 or K16; EF1Alpha eGFP plasmid; 42 hours
HuVec Cells = assay: as above; format: cell-based; conditions: DOTMA/DOPE + peptide linked to R12 or K16; EF1Alpha eGFP plasmid; 42 hours
Procedure, shortened: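 HuVEC cells in 96 well plates at 70% confluence were transfected with EF1Alpha eGFP plasmid using a 1:1 molar DOTMA/DOPE lipid mixed with a surface ligand peptide carrying a covalently attached nucleic acid binding moiety. Complexes formed for 10 minutes, 0.01 mL went to each well, cells were incubated 42 hours at 37° C., and fluorescence was read on a plate reader.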

Human Fibroblast Cells = assay: as above; format: cell-based; conditions: DOTMA/DOPE + peptide linked to R12 or K16; EF1Alpha eGFP plasmid; 42 hours
Procedure, shortened: (§1)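 DOTMA/DOPE (1:1 molar) plus peptide bearing a poly-Arg or poly-Lys tag was complexed 10 min with EF1alpha eGFP plasmid in OptiMEM, then added to 70%-confluent cells (0.01 mL fibroblasts; 0.02 mL C2C12, Jurkat). After 42 h at 37 °C, GFP was read by plate reader and compared with DOTMA without ligand.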

Jurkat Cells = assay: as above; format: cell-based; conditions: DOTMA/DOPE + peptide linked to R12 or K16; EF1Alpha eGFP plasmid; 42 hours
Procedure, shortened: as §1

NL-1 iPS Cells = assay: as above; format: cell-based; conditions: DOTMA/DOPE + peptide linked to R12 or K16; EF1Alpha eGFP plasmid; 42 hours
C2C12 Cells = assay: as above; format: cell-based, mouse; conditions: DOTMA/DOPE + peptide linked to R12 or K16; EF1Alpha eGFP plasmid; 42 hours
Procedure, shortened: as §1

HeLa Cells [2] = assay: GFP transfection with DOTMA/SEQ ID NO: 72 (fusogenic peptide)/peptide compared with Lipofectamine 2000; format: cell-based
Procedure, shortened: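 DOTMA/DOPE (1:1 molar) lipid mixed with polyarginine- or polylysine-tagged cell-surface-ligand peptide, complexed 10 min with EF1alpha eGFP plasmid at 10 μg/mL in OptiMEM, fusogenic peptide at 0.1 mg/mL final; HeLa cells ~70% confluent given 0.01 mL complex. GFP read by fluorescence plate reader and microscopy (% cells transfected) after 42 h at 37° C; Lipofectamine 2000 as comparator.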

some examined cell types = assay: Summary of Example 1: transfection expression and % cells transfected over the no peptide control; format: cell-based; conditions: on some examined cell types
Procedure, shortened: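 Cells at 70% confluence received DNA complexes of EF1Alpha eGFP plasmid with DOTMA/DOPE (1:1) plus oligo-Arg- or oligo-Lys-tagged peptide ligands, formed 10 min at room temperature. After 42 h at 37 °C, 5% CO2, GFP read by plate reader and % transfected cells judged microscopically, relative to lipid without peptide.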

[3] = 0.1 μL of DOTMA/SEQ ID NO: 72/Peptide in well of a 96 well plate
[4] = 0.2 μL of DOTMA/SEQ ID NO: 72/Peptide in well of a 96 well plate
[5] = 0.3 μL of DOTMA/SEQ ID NO: 72/Peptide in well of a 96 well plate
[6] = 0.4 μL of DOTMA/SEQ ID NO: 72/Peptide in well of a 96 well plate

Substance	Relative Fluorescence of Transfection of HeLa Cells (RF) (HeLa Cells [1])	Relative Fluorescence of Transfection of HuVec Cells (RF) (HuVec Cells)	Relative Fluorescence of Transfection of Human Fibroblast Cells (RF) (Human Fibroblast Cells)	Relative Fluorescence of Transfection of Jurkat Cells (RF) (Jurkat Cells)	Relative Fluorescence of Transfection of NL-1 iPS Cells (RF) (NL-1 iPS Cells)	Relative Fluorescence of Transfection of C2C12 Cells (RF) (C2C12 Cells)	Relative Fluorescence DOTMA/SEQ ID NO: 72/Peptide, HeLa Cells (RF) (HeLa Cells [2]; [3])	Relative Fluorescence DOTMA/SEQ ID NO: 72/Peptide, HeLa Cells (RF) (HeLa Cells [2]; [4])	Relative Fluorescence DOTMA/SEQ ID NO: 72/Peptide, HeLa Cells (RF) (HeLa Cells [2]; [5])	Relative Fluorescence DOTMA/SEQ ID NO: 72/Peptide, HeLa Cells (RF) (HeLa Cells [2]; [6])	transfection expression and % cells transfected over the no peptide control (some examined cell types)
353 (KKQRFRHRNRKGYRSQ) [compound 353]	29119	8772	8653	11107	9248	4291	36315	44772	36882	25802	increased transfection expression and the % cells transfected
355 (FRHRNRKGY) [compound 355]	32628	14810	6821	8132	7910	1900	18362	27990	22367	18289	increased transfection expression and the % cells transfected
357 (SETTVKYIFRLHE) [compound 357]	22679	6009	7167	2256	15624	4506	7718	11798	9229	9107	increased transfection expression and the % cells transfected
358 (GHRGPTGRPGKRGKQGQKGDS) [compound 358]	15132	25398	5665	18820	21956	2271	12331	12683	13686	11097	increased transfection expression and the % cells transfected
360 (GDLGRPGRKGRPGPP) [compound 360]	8516	24042	5347	16607	27572	2090	9946	11168	10381	8995	increased transfection expression and the % cells transfected
365 (ISRCQVCMKKRH) [compound 365]	36093	14764	5219	5298	6364	5390	26620	43775	36054	21540	increased transfection expression and the % cells transfected
367 (TDIPPCPHGWISLWK) [compound 367]	39008	13354	10036	4365	17545	16207	10427	21411	23001	17529	increased transfection expression and the % cells transfected
369 (TAIPSCPEGTVPLYS) [compound 369]	14444	6536	7590	11085	13124	3322	8737	16706	14880	12645	increased transfection expression and the % cells transfected
375 (LAGSCLPVFSTL) [compound 375]	41076	5542	7305	4272	5196	5633	22457	30891	34887	29024	increased transfection expression and the % cells transfected
377 (TAGSCLRRFSTM) [compound 377]	15091	9326	6638	6785	5474	1710	39115	40072	32914	22457	increased transfection expression and the % cells transfected
379 (TAGSCLRKF) [compound 379]	27424	14573	8520	7711	6894	3189	50018	47049	39036	26448	increased transfection expression and the % cells transfected
381 (TAGSCL) [compound 381]	22652	17542	9953	10806	9644	8834	34187	37463	27007	20088	increased transfection expression and the % cells transfected

— US20250154525A1, “PLANT VIRUS MOVEMENT PROTEINS AND METHODS OF USING SAME” (Molecular Transfer, Inc., priority 2016, published 2025)
